Paper PMC3246389 (Nature biotechnology, 2011)

Assays:
GABAB receptor = GABAB receptor (Homo sapiens, UniProt Q9UBS5); type: binding, rat and human; conditions: control ligand tested at the highest concentration
[1] = read-out: Kd, literature value; SPR on immobilized GM1; cited from earlier work

Sequence of GABAB receptor (Q9UBS5 1-844 isoform Q9UBS5-2): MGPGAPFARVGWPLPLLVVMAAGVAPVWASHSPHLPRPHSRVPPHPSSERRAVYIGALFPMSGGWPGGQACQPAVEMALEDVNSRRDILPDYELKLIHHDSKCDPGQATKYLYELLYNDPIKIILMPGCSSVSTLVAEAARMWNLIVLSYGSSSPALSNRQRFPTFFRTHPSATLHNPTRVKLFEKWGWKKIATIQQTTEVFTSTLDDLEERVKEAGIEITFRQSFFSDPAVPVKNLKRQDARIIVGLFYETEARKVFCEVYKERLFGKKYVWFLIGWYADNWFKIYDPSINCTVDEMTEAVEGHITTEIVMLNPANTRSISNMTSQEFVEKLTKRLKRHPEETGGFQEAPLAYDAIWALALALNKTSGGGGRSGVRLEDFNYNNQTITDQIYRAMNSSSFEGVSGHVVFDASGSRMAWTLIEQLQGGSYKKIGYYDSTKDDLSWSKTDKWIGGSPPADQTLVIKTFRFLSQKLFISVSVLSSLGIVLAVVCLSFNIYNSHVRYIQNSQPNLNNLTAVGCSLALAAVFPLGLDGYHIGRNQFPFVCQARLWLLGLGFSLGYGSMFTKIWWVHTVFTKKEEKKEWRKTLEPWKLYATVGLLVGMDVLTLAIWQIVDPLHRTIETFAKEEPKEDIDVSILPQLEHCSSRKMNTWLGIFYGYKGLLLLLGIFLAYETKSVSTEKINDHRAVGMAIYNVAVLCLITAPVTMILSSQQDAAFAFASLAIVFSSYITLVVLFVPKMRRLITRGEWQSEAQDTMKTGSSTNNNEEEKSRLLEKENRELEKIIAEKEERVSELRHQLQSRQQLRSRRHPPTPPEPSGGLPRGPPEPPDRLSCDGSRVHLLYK
Sequence of GABAB receptor (O88871 41-940 partner): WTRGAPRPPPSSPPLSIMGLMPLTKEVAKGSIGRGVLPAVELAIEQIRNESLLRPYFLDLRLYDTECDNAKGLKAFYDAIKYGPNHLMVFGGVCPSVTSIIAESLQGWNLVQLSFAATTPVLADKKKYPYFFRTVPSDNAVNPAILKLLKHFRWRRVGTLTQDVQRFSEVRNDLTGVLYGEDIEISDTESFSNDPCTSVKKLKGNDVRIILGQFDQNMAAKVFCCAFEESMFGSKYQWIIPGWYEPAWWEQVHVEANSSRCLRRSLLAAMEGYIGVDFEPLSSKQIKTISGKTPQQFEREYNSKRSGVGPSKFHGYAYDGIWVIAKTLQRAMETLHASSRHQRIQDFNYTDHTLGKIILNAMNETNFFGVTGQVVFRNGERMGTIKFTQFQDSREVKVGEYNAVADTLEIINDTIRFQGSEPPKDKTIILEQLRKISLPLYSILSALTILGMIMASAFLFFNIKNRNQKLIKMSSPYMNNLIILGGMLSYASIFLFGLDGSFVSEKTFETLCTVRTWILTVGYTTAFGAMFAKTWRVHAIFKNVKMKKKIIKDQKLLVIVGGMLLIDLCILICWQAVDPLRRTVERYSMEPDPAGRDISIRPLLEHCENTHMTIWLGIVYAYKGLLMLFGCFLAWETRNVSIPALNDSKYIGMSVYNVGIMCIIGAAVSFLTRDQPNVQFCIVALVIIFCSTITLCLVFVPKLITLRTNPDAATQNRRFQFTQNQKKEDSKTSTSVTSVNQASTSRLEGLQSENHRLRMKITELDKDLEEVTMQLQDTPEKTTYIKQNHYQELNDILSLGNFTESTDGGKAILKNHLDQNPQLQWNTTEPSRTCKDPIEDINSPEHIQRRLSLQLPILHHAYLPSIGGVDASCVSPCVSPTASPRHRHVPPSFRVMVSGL

BSI binding curve (negative control) (GABAB receptor) | Molecule | Kd [1]
negative control | C[C@H](N)C(=O)O [L-alanine] | –
negative control | CC(C)CCC[C@@H](C)[C@H]1CC[C@H]2[C@@H]3CC=C4C[C@@H](O)CC[C@]4(C)[C@H]3CC[C@]12C [cholesterol] | –
– | Cholera toxin B subunit: cholera toxin B subunit, soluble protein that binds GM1; purchased from Sigma | 4 pM
